In patent US10088479B2, “Biomarker and uses thereof” (ISIS INNOVATION LIMITED, priority 2014, dated 2018):
Where no end group is shown, it is not given here. [ ]: non-standard residue; d: D form. Cit = NC(=O)NCCC[C@H](N)C(=O)O

Tests used:
[1] = test system: primary human macrophages; experiment: Cytokine synthesis in primary human macrophages stimulated with FBG peptides; format: cell-based; settings: 1 or 20 μM peptide, 24 h
Method: After incubation the tissue was pipetted through a nylon mesh into a sterile beaker. The cells were then washed three times in complete medium (RPMI 1640 supplemented with 10% FCS). RA synovial fibroblasts were isolated from the mixed population of RA membrane cells by selection in DMEM (Bio-Whittaker) supplemented with 10% FBS, […], 100 U/ml penicillin, and streptomycin. Human monocytes were isolated from peripheral blood (London Blood Bank) and macrophages were derived from monocytes after differentiation for 4 days with 100 ng/ml of M-CSF.
(§1) Macrophages were cultured at 1×10^5 cells/well in RPMI 1640 containing 5% (v/v) FBS and 100 U/ml penicillin/streptomycin in 96-well tissue culture plates for 24 h before stimulation. Cells were incubated for 24 h at 37° C. with no addition, 1.0 μM FBG, 1 ng/ml LPS or 1 or 20 μM FBG peptide. Where stated, cells were pre-incubated with 20 μM FBG peptides for 15 min.
(§2) Supernatants were examined for the presence of the cytokines TNF-α, IL-6, and IL-8 by enzyme-linked immunosorbent assay (ELISA) according to the manufacturer's instructions (R&D systems). Absorbance was read on a spectrophotometric ELISA plate reader (Labsystems Multiscan Biochromic, Vantaa, Finland) and analyzed using the Ascent software program (Thermo Labsystems, Altrincham, UK).

[2] = test system: RA synovial membrane cultures; experiment: Blockade of spontaneous cytokine synthesis in RA synovial membrane cultures by FBG peptides; format: cell-based, human; settings: 24 h; for inhibition of cytokine synthesis at the highest concentrations: RA membrane cultures, peptide 25, 100 or 250 μM, highest concentration; for TNF and IL8 synthesis (spontaneous): RA synovial membrane cultures, 100 μM peptide
Method: RA membrane cells (representing a mixed population of all synovial cell types) were isolated from synovial membranes obtained from patients undergoing joint replacement surgery (Brennan (1989)). Synovial membrane tissue was digested in RPMI 1640 (GIBCO) containing 5% fetal calf serum (FCS) (GIBCO), 5 mg/ml collagenase type IV (Sigma) and 0 15 mg/ml DNAse type I (Sigma) and incubated at 37° C. for 2 h.
Immediately after isolation, RA membrane cells were cultured at 1×10^5 cells/well in RPMI 1640 containing 10% (v/v) FBS and 100 U/ml penicillin/streptomycin in 96-well tissue culture plates. Cells were incubated for 24 h at 37° C. with no addition, buffer control (PBS, 1% BSA, 0.01% NaN3), or with 25 μm, 100 μM or 250 μM of each FBG spanning peptide.
as §2

human macrophages = experiment: FBG or LPS induced cytokine synthesis in human macrophages after pre-incubation with FBG peptides; format: cell-based; settings: pre-incubation with 20 μM peptide, 24 h; for FBG mediated cytokine synthesis: then 1 μM whole FBG
Method: as §1, §2

RA sera = experiment: IgG response to cyclic citrullinated FBG peptides in RA and control sera; format: binding, human; settings: RA sera (n=20) vs control sera (n=20)
Source text: (A) Peptides with sequences corresponding to the amino acid sequence of FBG were designed, with the addition of cysteine residues at the amino and carboxy termini and the exchange of arginine for citrulline residues at positions identified by LC-MS/MS. (B) IgG response to citrullinated FBG peptides and arginine containing control peptides in patients with rheumatoid arthritis (RA; n=20) and healthy controls (n=20). The 95th percentile of the control sera was used to determine positivity (dashed line). Mann-Whitney U test was used to calculate p values for differences between groups (n.s.=no significant difference, *=p<0.05 and **=p<0.01, ***=p<0.001, […]).
With reference to FIG. 31, the antibody response in 20 RA and 20 control sera to 6 cyclic FBG peptides, encompassing citrulline residues was evaluated.

[3] = test system: primary human macrophages; experiment: TNF synthesis in primary human macrophages stimulated with native or citrullinated FBG; format: cell-based; settings: 0.1-1.0 μM, 24 h
Method: Primary human macrophages were isolated as described above and cultured at 1×10^5 cells/well in RPMI 1640 containing 5% (v/v) FBS and 100 U/ml penicillin/streptomycin in 96-well tissue culture plates for 24 h before stimulation. Cells were incubated for 24 h at 37° C. with no addition (UN), different concentrations (uM) of native FBG (nFBG) or cit FBG (cFBG) or citrullination buffer alone (CIT) or cit buffer plus PAD enzyme (CIT+PAD).
as §2, with “TNF-α” for “TNF-α, IL-6, and IL-8”

[4] = test system: human dermal fibroblasts (HDF); experiment: Cell adhesion to coated FBG, crystal violet; format: cell-based; settings: coated wells, 45 minutes
Method: (§3) (A) The sequence identified to bind integrin αvβ3 is shown in white (Yokoyama et al., 2000). Within this sequence two Arginines (shown in black) were identified to be citrullinated. (B) Wells of a 96 well plate were coated with different concentrations of FBG, citrullinated FBG (cFBG), FBG incubated in buffer without Calcium (FBG —Ca^2+), or FBG incubated without PAD (FBG —PAD). As a positive control wells were coated with Fibronectin (FN) (1 ug/ml), and coating with BSA (10 mg/ml) served as negative control. Plates were incubated with human dermal fibroblasts (HDF) or synovial fibroblasts from RA patients (RAF) for 45 minutes and adhesion was measured by determining absorbance of attached cells after staining with crystal violet (0.1%). Data are shown as the mean of at least four independent experiments+s.e.m., *=p<0.05, **=p<0.01.

[5] = test system: synovial fibroblasts from RA joints (RAF); experiment: Cell adhesion to coated FBG, crystal violet; format: cell-based, human; settings: coated wells, 45 minutes
Method: as §3

Molecule: TIGLLYPFPKDCSQAMLNGDTTSGLYTIYL [Peptide 1]
- induction of cytokine synthesis [1]: induced cytokine synthesis in a dose dependent manner

Molecule: ELRVDLRDHGETAFAVYDKFSVGDAKTRYK [Peptide 5]
- effect on TNF synthesis ([2]; RA membrane cells): no effect
- maximal inhibition of IL8 synthesis ([2]; RA membrane cells, dose dependent): 81%
- induction of cytokine synthesis [1]: induced cytokine synthesis in a dose dependent manner
- FBG mediated cytokine synthesis (human macrophages): specifically blocked

Molecule: KTRYKLKVEGYSGTAGDSMAYHNGRSFST [Peptide 6]
- induction of cytokine synthesis [1]: induced cytokine synthesis in a dose dependent manner

Molecule: CVFLRRKNG-Cit-ENFYQNWC (CVFLRRKNG[Cit]ENFYQNWC; also: cyclic, closure not given here) [CIT55]
- antibody response (RA sera): strong antibody response

Molecule: WIVFLRRKNGRENFYQNWKAYAAGFGDRRE [Peptide 3]
- inhibition of cytokine synthesis at the highest concentrations [2]: 95%
- TNF and IL8 synthesis (spontaneous) [2]: inhibited

Molecule: CEMKLRPSNFRNLEG-Cit-Cit-KRC (CEMKLRPSNFRNLEG[Cit][Cit]KRC; also: cyclic, closure not given here) [CIT219/220]
- antibody response (RA sera): strong antibody response

Molecule: WYRNCHRVNLMGRYGDNNHSQGVNWFHWKG [Peptide 8]
- inhibition of cytokine synthesis at the highest concentrations [2]: 56%
- TNF and IL8 synthesis (spontaneous) [2]: inhibited
- LPS induced cytokine synthesis (human macrophages; then 1 ng/ml LPS): blocked
- FBG mediated cytokine synthesis (human macrophages): blocked

Molecule: CEMKL-Cit-PSNF-Cit-NLEGRRKRC (CEMKL[Cit]PSNF[Cit]NLEGRRKRC; also: cyclic, closure not given here) [CIT209/214]
- antibody response (RA sera): strong antibody response

B1: citrullinated FBG: recombinant FBG domain citrullinated in vitro with PAD (protein)
chain: GLLYPFPKDCSQAMLNGDTTSGLYTIYLNGDKAEALEVFCDMTSDGGGWIVFLRRKNGRENFYQNWKAYAAGFGDRREEFWLGLDNLNKITAQGQYELRVDLRDHGETAFAVYDKFSVGDAKTRYKLKVEGYSGTAGDSMAYHNGRSFSTFDKDTDSAITNCALSYKGAFWYRNCHRVNLMGRYGDNNHSQGVNWFHWKGHEHSIQFAEMKLRPSNFRNLEGRRKRA
modifications: non-natural residues; left off: small tags and cut ends
notes: recombinant FBG domain citrullinated in vitro with PAD
- cytokine (TNFα) synthesis compared with native FBG [3]: better at stimulating cytokine (e.g. TNFα) synthesis
- adhesion of HDF [4]: reduces adhesion
- adhesion of RAF [5]: reduces adhesion
